Reference: ChEMBL document CHEMBL4118049, “HPLC-Based Activity Profiling for GABAA Receptor Modulators in Extracts: Validation of an Approach Utilizing a Larval Zebrafish Locomotor Assay” (J Nat Prod, 2017)
The source made the active and inactive calls. No cut-off for these calls is given here.

Legend:
Danio rerio [1] = species on record: Danio rerio; assay: Toxicity in 7-days post fertilized zebra fish larvae after 1.5 to 24 hrs by microscopic analysis; type: organism-based; conditions: zebrafish, in vivo
Danio rerio [2] = species on record: Danio rerio; assay: Anticonvulsant activity in 7-days post fertilized zebra fish larvae assessed as reduction in pentylenetetrazol-induced locomotor activity by measuring total distance traveled by larvae at 1.5 to 6 uM pretreated for 3 hrs followed by pentylenetetrazol addition measured at 5 mins interval 30 mins; type: functional, organism-based
Danio rerio [3] = species on record: Danio rerio; assay: Anticonvulsant activity in 7-days post fertilized zebra fish larvae assessed as reduction in pentylenetetrazol-induced locomotor activity by measuring total distance traveled by larvae pretreated for 3 hrs followed by pentylenetetrazol addition measured at 5 mins interval 30 mins; type: functional, organism-based
Danio rerio [4] = species on record: Danio rerio; assay: Anticonvulsant activity in 7-days post fertilized zebra fish larvae assessed as reduction in pentylenetetrazol-induced locomotor activity by measuring total distance traveled by larvae at 0.25 to 2 uM pretreated for 3 hrs followed by pentylenetetrazol addition measured at 5 mins interval 30 mins; type: functional, organism-based
Danio rerio [5] = species on record: Danio rerio; assay: Anticonvulsant activity in 7-days post fertilized zebra fish larvae assessed as reduction in pentylenetetrazol-induced locomotor activity by measuring total distance traveled by larvae at 1.25 to 10 uM pretreated for 3 hrs followed by pentylenetetrazol addition measured at 5 mins interval 30 mins; type: functional, organism-based

SMILES | MTD (Danio rerio [1]) [µM] | Activity (Danio rerio [2]) | Activity (Danio rerio [3]) | Activity (Danio rerio [4]) | Activity (Danio rerio [5])
CC(C)c1ccc2c(c1)CC[C@H]1[C@](C)(C(=O)O)CCC[C@]21C [DEHYDROABIETIC ACID] | 6 | Active | – | – | –
CN1C(=O)CN=C(c2ccccc2)c2cc(Cl)ccc21 [DIAZEPAM] | 20 | – | Dose-dependent effect | – | –
C=CCc1ccc(O)c(-c2cc(CC=C)ccc2O)c1 [MAGNOLOL] | 4 | – | Dose-dependent effect | – | –
O=C(/C=C/C=C/c1ccc2c(c1)OCO2)N1CCCCC1 [PIPERINE] | 12 | – | Dose-dependent effect | – | –
C=C[C@]1(C)C=C2CC[C@@H]3[C@](C)(CCC[C@@]3(C)C(=O)O)[C@H]2CC1 [SANDARACOPIMARIC ACID] | 2 | – | – | Active | –
CC(C)=CC[C@]12Oc3cc(O)c([C@H]4C=C(C)C[C@H](c5ccc(O)cc5O)[C@H]4C(=O)c4ccc(O)cc4O)c(O)c3C(=O)[C@@]1(O)Oc1cc(O)ccc12 [SANGGENON C] | 2 | – | – | inactive | –
C=C(C)[C@H](CC=C(C)C)Cc1c(O)cc(O)c2c1O[C@H](c1ccc(O)cc1O)CC2=O [SOPHORAFLAVANONE G] | 10 | – | – | – | Active
CC1=C2[C@H](/C=C(\C)C(=O)O)CC[C@@H](C)[C@H]2CC1 [VALERENIC ACID] | 10 | – | Dose-dependent effect | – | –
